From publication PMC7374170, “TRIB3-EGFR interaction promotes lung cancer progression and defines a therapeutic target” (Nature Communications, 2020)
Like-named read-outs stand apart in the source and are kept apart here. Values belong to the compound of their own block, whether it stands above or below them. Bridge positions count the residues as written; N and C are the ends. Square brackets hold non-standard residues; d marks the D form. Peptide text beside a SMILES is read from it. S5 = C=CCCC[C@](C)(N)C(=O)O

Tests used:
[1] = In vivo bio-distribution and clearance of FAM-labeled peptide (IVIS); details: FAM-labeled peptides, bolus tail vein injection 2 mg kg-1, male athymic BALB/c nude mice
Experimental: detected by Exactive™ Plus Orbitrap (Thermo Fisher Scientific, USA).
In vitro plasma stability assay
The rat blood was collected by
The plasma solutions were incubated […]
ionization mass spectrometric detection. The values represent the mean of 3 independent assays.
In vivo bio-distribution and clearance of peptide
OH, USA). Data was analyzed by the built-in software.

[2] = set-up: species or system BALB/c nude mice; details: mouse, in vivo
Experimental: twice a week for 4 weeks. […] Data are means ± SEM of 3 independent assays. […] CALM: Calmodulin. […] Lung cancer cells were isolated from PDX mice by using the […] One week after tumor inoculation, mice were […] or pemetrexed (100 mg kg-1, once a day). Tumor growth was monitored twice weekly with a caliper. Tumor volume (T ) was calculated using the formula: T =0.5×L×W 2. Mice survival V V […] signs of distress. […] Generation of Stable Cell Lines To establish cell populations stably expressing TRIB3-shRNA1/2, or the Control-shRNA, cells were transfected with TRIB3-shRNA1/2 or the Control-shRNA expressing plasmids. Stable transfectants were selected in medium containing hygromycin. […] (Supplementary Fig. 9a).

[3] = system: keratinocytes (HaCaT)
[4] = system: colonic mucosal epithelial cells (NCM460)
[5] = system: bronchial epithelial cells (BEAS-2B)
[6] = In vitro plasma stability assay; details: normalised to 100 at 0 min
[7] = system: A549 cells; assay: CCK-8 cell viability / cytotoxicity, A549; type: cell-based; details: Homo sapiens, read-out: IC50 of pemetrexed, A549, before sensitization
[8] = system: NCI-H1975 cells; assay: CCK-8 cell viability / cytotoxicity, NCI-H1975; type: cell-based; details: Homo sapiens
[9] = system: cell surface EGFR in NCI-H157 cells; assay: Cell surface EGFR by flow cytometry, NCI-H157; type: cell-based, human; details: TRIB3-overexpressing NCI-H157 cells, 10 µM monensin 4 hr, EGF 100 ng ml-1 1 hr
Experimental: Supplementary Figure 2 Overexpression of TRIB3 promotes EGFR recycling. […]
a, NCI-H157 cells and NCI-H157 cells stably expressed TRIB3 were non-stimulated or EGF […]
(100 ng ml-1) stimulated for indicated times. Co-localization of EGFR with EEA1 was analyzed […]
with confocal microscopy, quantification of EGFR and EEA1 colocalization was shown as […]
Pearson’s coefﬁcient. Data are means ± SEM of 3 independent assays. b, Gating strategy to […]
determine surface EGFR level presented in figure 2d and supplementary figure 2c. c, […]
Quantitative analyses of cell surface EGFR in NCI-H157 cells stably expressed Empty-Vector […]
or TRIB3-HA expression plasmid. Cells were pre-incubated with DM SO or 10 µM monensin […]
cell surface was detected by flow cytometry analysis. […]
detected in NCI-H157 cells with or without TRIB3-HA stably ectopic expression (d); or in NCI- […]
localization of EGFR with Rab11 and LAMP1. Quantification of EGFR/Rab11 or […]
3 independent assays. Statistical significance between two groups was determined with two- […]
tailed Student’s t-test. Statistical significance among groups was determined by one-way ANOVA test. […]
Live cells were stained with Alexa-Fluro 488 anti-EGFR antibody (Santa Cruz, R-1, #sc-101 AF488, 1:100). Analysis was performed using a PARTEC EPICSXL (Germany) and data was analyzed using FCS Express 6. […]

half-clearance rate in vivo compared with Pep2-JGZ [1]: slower half-clearance rate
EGFR and HER2 expression in the heart [2]: did not cause reductions in
peptide remaining ([6]; 450 min, replicate 1): 113.749
peptide remaining ([6]; 450 min, replicate 2): 125.15
peptide remaining ([6]; 450 min, replicate 3): 119.761
peptide remaining ([6]; 540 min, replicate 1): 115.041
peptide remaining ([6]; 540 min, replicate 2): 121.067
peptide remaining ([6]; 540 min, replicate 3): 118.562
peptide remaining ([6]; 630 min, replicate 1): 106.23
peptide remaining ([6]; 630 min, replicate 2): 116.53
peptide remaining ([6]; 630 min, replicate 3): 116.365
peptide remaining ([6]; 720 min, replicate 1): 109.883
peptide remaining ([6]; 720 min, replicate 2): 113.113
peptide remaining ([6]; 720 min, replicate 3): 112.463
Structure (SMILES): CC[C@H](C)[C@@H]1NC(=O)[C@@](C)(NC(=O)[C@H](CC(C)C)NC(=O)[C@H](CC(C)C)NC(=O)[C@H](C)NC(=O)[C@H](CCC(N)=O)NC(=O)[C@@H](N)CC(N)=O)CCCC=CCCC[C@@](C)(C(=O)N[C@H](C(=O)N[C@@H](CCC(=O)O)C(=O)N[C@@H](Cc2ccccc2)C(=O)N[C@@H](CCCCN)C(=O)N[C@@H](CCCCN)C(=O)O)[C@@H](C)O)NC(=O)[C@H](CCCNC(=N)N)NC(=O)[C@H](CC(C)C)NC1=O [SAH-JGZ4] (H-NQALL[S5]ILR[S5]TEFKK-OH; staple 6-10)
cell viability, HaCaT [3]: had no effect on the cell viability
cell viability, NCM460 [4]: had no effect on the cell viability
cell viability, BEAS-2B [5]: had no effect on the cell viability

Structure (SMILES): Nc1nc2[nH]cc(CCc3ccc(C(=O)N[C@@H](CCC(=O)O)C(=O)O)cc3)c2c(=O)[nH]1 [pemetrexed]
IC50 [7]: 245 nM
IC50 ([8]; NCI-H1975, read-out: IC50 of pemetrexed, H1975, sensitized by SAH-JGZ4): 793 nM
IC50 ([8]; NCI-H1975, read-out: IC50 of pemetrexed, H1975, before sensitization): 3170 nM

Structure (SMILES): CC[C@@]1([C@@H]2O[C@@H]([C@H]3O[C@@](O)(CO)[C@H](C)C[C@@H]3C)C[C@@H]2C)CC[C@H]([C@]2(C)CC[C@]3(C[C@H](O)[C@@H](C)[C@@H]([C@@H](C)[C@@H](OC)[C@H](C)C(=O)O)O3)O2)O1 [monensin]
EGFR membrane level [9]: reduced the EGFR membrane level
